Experimental findings from US20260102401A1, “Combination Therapies” (MIRATI THERAPEUTICS, INC., priority 2022, published 2026) are described below.

This experiment concerns H2122 cells. The experiment can be described thus: H2122 cell-line derived xenograft model, tumor volumes. As to conditions: for tumor growth inhibition: Day 17, single agent, H2122 xenograft, 100 mg/kg Compound 478 or 50 mg/kg olaparib p.o. daily; for Average Tumor Volumes: H2122 tumor bearing mice, 100 mg/kg Compound 478 and/or 50 mg/kg olaparib p.o. daily. The experiment is classed as in vivo, nude/nude mice. Here is the method:
Immunocompromised nude/nude mice were inoculated in the right hind flank with cells or patient derived tumor samples harboring a KRas G12C mutation. When tumor volumes reach ˜300 mm^3 in size, the mice were divided into four groups of 5 mice each. The first group was administered vehicle only. […] The fourth group was orally administered the single agent dose of the KRas G12C inhibitor in combination with the single agent dose of the PARP inhibitor at the matched schedule. The treatment period was 17 days. Tumor volumes were measured using a caliper every two-three days and tumor volumes are calculated by the formula: […].
For example, twenty nude/nude mice were inoculated in the right hind limb with 5×10^6 H2122 cells. When tumor volume reached ˜300 mm^3 (Study Day 1), 5 mice in each of the […] groups were administered p.o. daily for 32 days: vehicle only (10% Captisol in 50 mM citrate buffer pH5.0), 100 mg/kg of KRas G12C inhibitor Compound 478 (10% Captisol in 50 mM citrate buffer, pH 5.0), 50 mg/kg of the PARP inhibitor olaparib (10% Captisol in 50 mM citrate buffer, pH 5.0), or 100 mg/kg of KRas G12C inhibitor Compound 478 and 50 mg/kg of olaparib. Dosing stopped on day 17 for all groups due to large tumor growth in the vehicle and Olaparib only groups.

Consider `C=C(F)C(=O)N1CCN(c2nc(OC[C@@H]3CCCN3C)nc3c2CCN(c2cccc4cccc(Cl)c24)C3)C[C@@H]1CC#N` [Compound 478, adagrasib], for which the tumor growth inhibition is on record as 89%. Besides, for the setting “Study Day 3”, the “Average Tumor Volumes” value came to 290.578 mm^3. Where the note is “Study Day 6”, the “Average Tumor Volumes” value is given as 301.744 mm^3. Also, for the setting “Study Day 10”, the “Average Tumor Volumes” value was found to be 326.222 mm^3. Besides, the “Average Tumor Volumes” value (Study Day 13) is reported as 345.38 mm^3. The “Average Tumor Volumes” value (Study Day 17) was 360.308 mm^3. Further, the “Average Tumor Volumes” value (Study Day −1 (before dosing)) is recorded as 284.794 mm^3.
With `O=C(c1cc(Cc2n[nH]c(=O)c3ccccc23)ccc1F)N1CCN(C(=O)C2CC2)CC1` [Olaparib, 4-[[3-[4-(cyclopropanecarbonyl)piperazine-1-carbonyl]-4-fluorophenyl]methyl]-2H-phthalazin-1-one], the tumor growth inhibition is listed as 0%. Besides, where the note is “Study Day 3”, the “Average Tumor Volumes” value is reported as 451.342 mm^3. For the same compound, the “Average Tumor Volumes” value (Study Day 6) worked out at 558.15 mm^3. Further, the “Average Tumor Volumes” value (Study Day 10) turned out to be 776.514 mm^3. In addition, where the note is “Study Day 13”, the “Average Tumor Volumes” value is listed as 848.664 mm^3. Moreover, the “Average Tumor Volumes” value (Study Day 17) came out at 1058.96 mm^3. Besides, the “Average Tumor Volumes” value (Study Day −1 (before dosing)) stood at 292.194 mm^3.
